# Patent US20210023223A1, “HYDROCARBON / LIPID - CAROTENOID COMPLEXES” (IP SCIENCE LIMITED, priority 2018, published 2021)
# Key:
# Melting time = assay type: physicochemical; conditions: lycopene 0.25 to 0.5 mg per 1 gram
# Protocol: (§1) Approximately 20 mg of butter, or pork fat, or beef fat, or cocoa butter, or chocolate, with or without certain concentrations of carotenoids, were placed on the surface of the laboratory slides and incubated at 37° C. in a laboratory incubator (TLK39).
# For example, in experiments with the chocolate spread, when the lycopene was 0.25 to 0.5 mg per 1 gram of this product its melting time reduced by 30-35%, FIG. 18.
# [1] = Size of pork fat globules, microscopy; assay type: physicochemical; conditions: maximum doses
# Protocol: (§2) For measurement of lipid droplets and fat globules and quantification of their size binocular microscope Olympus BX41 was used with Cell^B software for morphometric analysis. All parameters were collected from 10 randomly selected microscopic fields at ×1000).
# When carotenoids were added to animal fat, with a relatively high percentage of saturated fatty acid, a similar trend in increased fat globules was observed, although to a lesser degree. The maximum doses of lycopene or astaxanthin caused a similar increase in the pork fat globules diameter, only 50%, FIG. 2 and table 3.
# [2] = system: moderately obese volunteers; assay: Lipoprotein O2 by catalymetry; assay type: in vivo, human
# Protocol: (§3) Study Design. The total number of volunteers recruited to take part in the study was 18 (9 male and 9 female subjects) Caucasians 40-67 years old.
# (§4) Products Formulated with Lycopene was developed and made by Lycotec Ltd. (Cambridge, United Kingdom). The daily dose was 1 capsule of 20 mg of lycopene, and it was taken with the main meal of the day. The period of administration was 1 month.
# LDL-Px and Lipoprotein O2. Activity of serum LDL peroxidase proteins, which include IgG with superoxide dismutase activity, was measured as described previously. Plasma oxygen, which carried by blood lipids/lipoproteins was measured by catalymetry.
# [3] = system: moderately obese volunteers; assay: Serum lipids after 20 mg lycopene for 1 month; assay type: in vivo, human
# Protocol: as §3, §4
# Blood was collected by phlebotomy in the morning, in the hospital, from the arm veins of patients following night fast. The serum was separated from the rest of the clotted mass by centrifugation; aliquots were then stored in code-labelled tubes for blinded analysis and stored at −80° C. until use.
# Melting time at 37° C. = assay type: physicochemical
# Protocol: as §1
# [4] = system: individuals with a moderate hyperlipidemia; assay: Clinical Trial DHA-Lycopene, 4 weeks; assay type: in vivo, human; conditions: medians, DHA 250 mg and/or lycopene 7 mg once a day
# Protocol: To validate this, a clinical trial was undertaken. 32 individuals aged 40-65 years old with a moderate hyperlipidemia (serum triglycerides, TG, >150 mg/dl and LDL from 130 to 160 mg/dl). They were randomised and split in four groups of 8: • The first was supplemented with a 250 mg of conventional formulation of DHA without lycopene (CF-DHA), • the second with 7 mg of lycopene, • the third with 250 mg of DHA and 7 mg of lycopene co-ingested at the same time but as two separate products, and • the fourth group received 7 mg lycopene formulated with 250 mg of DHA (LF-DHA). All products were taken once a day with the main meal. The duration of the trial was for 4 weeks.
# [5] = Hydrophobicity as oxygen gas solubility (micellar red-ox catalymetry); assay type: physicochemical
# From the text: It is known that gas molecules are more soluble in hydrophobic domains than in polar structures or liquids. For example, solubility of molecular oxygen could be 4 to 10 fold greater in intact lipid membrane than in a surrounding aqueous solution [1-5]. In other words one can use the measure of soluble gas in lipids, or other […], as a measure of its hydrophobicity. This approach seem logical, however to the best of our knowledge has never been published.
# Here we describe a new method to measure hydrophobicity of lipids as a function of concentration of soluble molecular oxygen within their matrix.
# There are a number of ways to measure molecular oxygen in solid, crystal and indeed lipid structures. Almost all of them are physical methods such as ESR [1] or polarography. However, we decided to use much simpler and faster micellar acceleration red-ox catalymetry. This test can measure O2 in a dozen parallel samples not only lipids in model systems but also in circulating lipoproteins from human blood.
# The physical expansion of the size of the oil droplets observed in the above experiments was estimated by independent measurements on changes in their hydrophobicity. […] With this approach it was possible to detect these changes when ratio lycopene to fatty acids reached 1 to 10,000 and then it was a dose dependent effect. This rise reached its plateau level at the ratio 1:4,000.
# [6] = Defrosting time of frozen oil; assay type: physicochemical
# Protocol: To determined defrosting time, frozen oil aliquots of 200 μI were incubated at ambient temperature of 20±2 C° until they were completely melted. Period of time, which was required for the tested sample to be melted, was measured with a laboratory timer (QUANTUM).
# [7] = Size of beef fat globules, microscopy; assay type: physicochemical
# From the text: For measurement of lipid droplets and fat globules and quantification of their size binocular microscope Olympus BX41 was used with Cell^B software for morphometric analysis. All parameters were collected from 10 randomly selected microscopic fields at ×1000). In case of beef fat, lycopene incorporation led to a smaller increase of its fat globules, only by 30%, FIG. 3.
# [8] = Size of Canola oil lipid droplets, microscopy; assay type: physicochemical
# From the text: as §2
# The effect of adding lycopene into another polyunsaturated oil, in this case cod liver oil, was a dose-dependent increase in the size of its lipid structures. For Olive and Sunflower oils this increase in diameter caused by lycopene could reach 20 fold, for Canola and Cod Liver oil it was 50 or 100 fold.
# [9] = after 20 mg lycopene daily for one month
structure (smiles),measurement,setting,value
CC(C)=CCC/C(C)=C/C=C/C(C)=C/C=C/C(C)=C/C=C/C=C(C)/C=C/C=C(C)/C=C/C=C(\C)CCC=C(C)C [Lycopene],Reduction of melting time of chocolate spread,Melting time,30-35%
same,Increase in the pork fat globules diameter,[1],50%
same,Lipoprotein O2,[2]; [9],3.44 ± 0.27 µM
same,Lipoprotein O2,"[2]; before, n = 18",2.94 ± 0.25 µM
same,HDL,[3]; [9],49.9 ± 3.0^ mg/dL
same,LDL,[3]; [9],121 ± 10.5 mg/dL
same,Triglycerides,[3]; [9],128 ± 9.7 mg/dL
same,HDL,"[3]; before, n = 18",49.2 ± 2.9^ mg/dL
same,LDL,"[3]; before, n = 18",134 ± 11.3 mg/dL
same,Triglycerides,"[3]; before, n = 18",136 ± 10.1 mg/dL
same,Reduction of melting time of cocoa butter,Melting time at 37° C.; 0.3 mg per 1 g,more than 8 fold
same,Reduction of melting time of white chocolate,Melting time at 37° C.; 0.3 mg per 1 g of the chocolate,under 3 fold
same,Melting time of white chocolate,"Melting time at 37° C.; 0.3 mg per 1 g of the chocolate, control 11 minutes",4 min
same,Melting time of cocoa butter,"Melting time at 37° C.; 0.3 mg per 1 g, control 16.5 minutes",2 min
same,LDL,[4]; 0 w,156.0 mg/dL
same,Triglycerides,[4]; 0 w,203.5 mg/dL
same,LDL,[4]; 4 w,155.5 mg/dL
same,Triglycerides,[4]; 4 w,190.0 mg/dL
same,Hydrophobicity in terms of gas solubility,"[5]; ratio of molecules of lycopene per molecules of fatty acids 1:3,000",248-287 10^−6 M O2 per mg of sunflower oil
same,Hydrophobicity in terms of gas solubility,"[5]; ratio of molecules of lycopene per molecules of fatty acids 1:4,000",275-321 10^−6 M O2 per mg of sunflower oil
same,Hydrophobicity in terms of gas solubility,"[5]; ratio of molecules of lycopene per molecules of fatty acids 1:5,000",197-198 10^−6 M O2 per mg of sunflower oil
same,Hydrophobicity in terms of gas solubility,"[5]; ratio of molecules of lycopene per molecules of fatty acids 1:10,000",180-182 10^−6 M O2 per mg of sunflower oil
same,Hydrophobicity in terms of gas solubility,"[5]; ratio of molecules of lycopene per molecules of fatty acids 1:20,000",143-155 10^−6 M O2 per mg of sunflower oil
same,Reduction of thawing time of Canola/Rapeseed oil,[6]; 0.3 mg per 1 ml of the oil,over 2 fold
same,Reduction of thawing time of Olive oil,[6]; 0.3 mg per 1 ml of the oil,10 fold
same,Thawing time of Canola/Rapeseed oil,"[6]; 0.3 mg per 1 ml of the oil, control 85 seconds",40 s
same,Thawing time of Cod Liver oil,"[6]; 0.3 mg per 1 ml of the oil, control 120",55 s
same,Thawing time of frozen Olive oil,"[6]; 0.3 mg per 1 ml of the oil, controls 60 (lycopene) and 48 seconds (astaxanthin)",6 s
same,Reduction of thawing time of Sunflower oil,[6]; 0.3 mg per 1 ml the oil,17 fold
same,Increase of beef fat globules,[7],30%
same,Increase in lipid droplet diameter,[8],50 fold
